Measurements published in patent US12012403B2, “Aryl sulfonyl compounds as CCR6 inhibitors” (CHEMOCENTRYX, INC., priority 2021, dated 2024).

These molecules were tested against T1, human CCR6 (Homo sapiens, UniProt P51684) (assay: Migration (chemotaxis) assay, hCCR6-transfected Ba/F3 cells toward CCL20). Conditions: hCCR6-transfected Ba/F3 cells in human serum; recombinant human CCL20 10 nM; 37° C. 45 minutes; read-out: Potency (IC50 value in the migration assay).
T1 construct: expressed in transfected cells; host or cells: Ba/F3 cells (murine pro-B line), hCCR6-transfected, CMV promoter, sodium butyrate induction
T1 sequence (P51684 1-374): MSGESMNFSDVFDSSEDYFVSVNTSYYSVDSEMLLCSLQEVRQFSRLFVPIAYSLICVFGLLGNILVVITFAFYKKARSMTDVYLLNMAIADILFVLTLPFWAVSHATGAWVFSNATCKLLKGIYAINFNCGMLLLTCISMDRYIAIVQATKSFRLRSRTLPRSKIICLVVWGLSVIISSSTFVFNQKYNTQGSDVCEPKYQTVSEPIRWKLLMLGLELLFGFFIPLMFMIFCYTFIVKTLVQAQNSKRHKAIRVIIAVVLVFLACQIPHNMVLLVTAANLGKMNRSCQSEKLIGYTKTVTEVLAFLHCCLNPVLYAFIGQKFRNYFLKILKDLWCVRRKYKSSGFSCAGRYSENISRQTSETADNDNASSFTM
Format: cell-based
Text: A chemotaxis assay can be used to determine the efficacy of potential receptor antagonists at blocking the migration mediated through chemokine receptors, such as CCR6. This assay is routinely performed using the ChemoTX® microchamber system with a 5-μm pore-sized polycarbonate membrane. Chemokine receptor-expressing cells are required for such an assay. In this case, Ba/F3 cells (Palacios et al., Nature, 309:126, 1984) transfected with the gene for human CCR6 under control of the CMV promotor were used. To begin such an assay, hCCR6-transfected Ba/F3 cells are first grown for 24 hr in medium supplemented with sodium butyrate, which increases CCR6 transcription via the CMV promotor. The prepared Ba/F3 cells, are collected by centrifugation at 400×g at room temperature, then suspended at 4 million/ml in human serum. The compound being tested is serially diluted from a maximum final concentration of 10 μM (or an equivalent volume of its solvent (DMSO)) and is then added to the cell/serum mixture. Separately, recombinant human CCL20 (MIP-3α/LARC) at its EC50 concentration (10 nM) is placed in the lower wells of the ChemoTX® plate. The 5-μm (pore size) polycarbonate membrane is placed onto the plate, and 20 μL of the cell/compound mixture is transferred onto each well of the membrane. The plates are incubated at 37° C. for 45 minutes, after which the polycarbonate membranes are removed and 5 μl of the DNA-intercalating dye CyQUANT (Invitrogen, Carlsbad, CA) is added to the lower wells. The amount of fluorescence, corresponding to the number of migrated cells, is measured using a Spectrafluor Plus plate reader (TECAN, San Jose, CA).
Work on O=C1CCc2cc(-c3ccc(S(=O)(=O)N4CCC(Nc5ccc(C(F)(F)F)cn5)CC4)cc3)ccc2N1 [Example 1.078] yielded an IC50 of 0.005 to 0.1 µM.
N#Cc1cc2ccc(-c3ccc(S(=O)(=O)N4CCC(Nc5ccc(C(F)(F)F)cn5)CC4)cc3)cc2[nH]1 [Example 1.079] gave an IC50 of 0.005 to 0.1 µM.
NC(=O)c1c[nH]c2ccc(-c3ccc(S(=O)(=O)N4CCC(Nc5ccc(C(F)(F)F)cn5)CC4)cc3)cc12 [Example 1.080] was tested, and the IC50 was 0.005 to 0.1 µM.
Nc1cc2cc(-c3ccc(S(=O)(=O)N4CCC(Nc5ccc(C(F)(F)F)cn5)CC4)cc3)cnc2o1 [Example 1.081] showed an IC50 of less than 0.005 µM.
Work on O=c1[nH]c2cc(-c3ccc(S(=O)(=O)N4CCC(Nc5ccc(C(F)(F)F)cn5)CC4)cc3)ccc2o1 [Example 1.082] yielded an IC50 of 0.005 to 0.1 µM.
O=S(=O)(c1ccc(-c2ccnc3[nH]ccc23)cc1)N1CCC(Nc2ccc(C(F)(F)F)cn2)CC1 [Example 1.083] gave an IC50 of 0.005 to 0.1 µM.
O=C1Cc2ccc(-c3ccc(S(=O)(=O)N4CCC(Nc5ccc(C(F)(F)F)cn5)CC4)cc3)cc2N1 [Example 1.084] showed an IC50 of 0.005 to 0.1 µM.
For NC(=O)c1cnc2ccc(-c3ccc(S(=O)(=O)N4CCC(Nc5ccc(C(F)(F)F)cn5)CC4)cc3)cn12 [Example 1.085], the IC50 was less than 0.005 µM.
Nc1nc2ccc(-c3ccc(S(=O)(=O)N4CCC(Nc5ccc(C(F)(F)F)cn5)CC4)cc3)cc2o1 [Example 1.086] was tested, and the IC50 was less than 0.005 µM.
In the case of O=S(=O)(c1ccc(-c2ccc3[nH]nc(C(F)(F)F)c3c2)cc1)N1CCC(Nc2ccc(C(F)(F)F)cn2)CC1 [Example 1.087], the IC50 is reported as 0.005 to 0.1 µM.
N#Cc1c[nH]c2ncc(-c3ccc(S(=O)(=O)N4CCC(Nc5ccc(C(F)(F)F)cn5)CC4)cc3)cc12 [Example 1.088] showed an IC50 of less than 0.005 µM.
Molecule O=S(=O)(c1ccc(-c2cnc3[nH]ccc3c2)cc1)N1CCC(Nc2ccc(C(F)(F)F)cn2)CC1 [Example 1.089] has an IC50 of less than 0.005 µM.
Molecule Cn1nc(C(N)=O)c2cc(-c3ccc(S(=O)(=O)N4CCC(Nc5ccc(C(F)(F)F)cn5)CC4)cc3)ccc21 [Example 1.090] has an IC50 of less than 0.005 µM.
With Cn1nc(C#N)c2cc(-c3ccc(S(=O)(=O)N4CCC(Nc5ccc(C(F)(F)F)cn5)CC4)cc3)ccc21 [Example 1.091] the IC50 was less than 0.005 µM.
Work on Cc1nc2cc(-c3ccc(S(=O)(=O)N4CCC(Nc5ccc(C(F)(F)F)cn5)CC4)cc3)ccc2[nH]1 [Example 1.092] yielded an IC50 of 0.005 to 0.1 µM.
O=C1NCc2ccc(-c3ccc(S(=O)(=O)N4CCC(Nc5ccc(C(F)(F)F)cn5)CC4)cc3)cc21 [Example 1.093] showed an IC50 of less than 0.005 µM.
Cc1n[nH]c2ccc(-c3ccc(S(=O)(=O)N4CCC(Nc5ccc(C(F)(F)F)cn5)CC4)cc3)cc12 [Example 1.094] was tested, and the IC50 was 0.005 to 0.1 µM.
NC(=O)c1n[nH]c2ccc(-c3ccc(S(=O)(=O)N4CCC(Nc5ccc(C(F)(F)F)cn5)CC4)cc3)cc12 [Example 1.095] showed an IC50 of less than 0.005 µM.
O=S(=O)(c1ccc(-c2ccc3[nH]ncc3c2)cc1)N1CCC(Nc2ccc(C(F)(F)F)cn2)CC1 [Example 1.096] showed an IC50 of 0.005 to 0.1 µM.
With O=c1[nH]c2ccc(-c3ccc(S(=O)(=O)N4CCC(Nc5ccc(C(F)(F)F)cn5)CC4)cc3)cc2o1 [Example 1.097] the IC50 was less than 0.005 µM.
NC(=O)c1cc2cc(-c3ccc(S(=O)(=O)N4CCC(Nc5ccc(C(F)(F)F)cn5)CC4)cc3)ccc2[nH]1 [Example 1.098] showed an IC50 of 0.005 to 0.1 µM.
In the case of N#Cc1c(N)[nH]c2ccc(-c3ccc(S(=O)(=O)N4CCC(Nc5ccc(C(F)(F)F)cn5)CC4)cc3)cc12 [Example 1.099], the IC50 is reported as less than 0.005 µM.
For N#Cc1c[nH]c2cc(-c3ccc(S(=O)(=O)N4CCC(Nc5ccc(C(F)(F)F)cn5)CC4)cc3)ccc12 [Example 1.101], the IC50 was 0.005 to 0.1 µM.
NC(=O)N1CCc2nc(-c3ccc(S(=O)(=O)N4CCC(Nc5ccc(C(F)(F)F)cn5)CC4)cc3)sc2C1 [Example 1.102] showed an IC50 of 0.1 to 10 µM.
N#Cc1c[nH]c2ccc(-c3ccc([S@](=N)(=O)N4CCC(Nc5ccc(C(F)(F)F)cn5)CC4)cc3)cc12 [Example 1.103] gave an IC50 of 0.005 to 0.1 µM.
For N=[S@](=O)(c1ccc(-c2ccc3[nH]cnc3c2)cc1)N1CCC(Nc2ccc(C(F)(F)F)cc2)CC1 [Example 1.104], the IC50 was 0.005 to 0.1 µM.
Molecule N=[S@](=O)(c1ccc(-c2ccc3oc(N)nc3c2)cc1)N1CCC(Nc2ccc(C(F)(F)F)cc2)CC1 [Example 1.105] has an IC50 of 0.005 to 0.1 µM.
In the case of O=S(=O)(c1ccc(-c2nc3c(s2)CNCC3)cc1)N1CCC(Nc2ccc(C(F)(F)F)cn2)CC1 [Example 1.106], the IC50 is reported as 0.1 to 10 µM.
Nc1nc2cc(-c3ccc(S(=O)(=O)N4CCC(Nc5ccc(C(F)(F)F)cn5)CC4)cc3)ccc2[nH]1 [Example 1.107] showed an IC50 of 0.005 to 0.1 µM.
Molecule O=S(=O)(c1ccc(-c2ccc3[nH]nnc3c2)cc1)N1CCC(Nc2ccc(C(F)(F)F)cn2)CC1 [Example 1.109] has an IC50 of 0.1 to 10 µM.
Work on O=S(=O)(c1ccc(-c2ccc3[nH]cnc3c2)cc1)N1CCC(Nc2ccc(C(F)(F)F)cn2)CC1 [Example 1.110] yielded an IC50 of less than 0.005 µM.
Nc1n[nH]c2ccc(-c3ccc(S(=O)(=O)N4CCC(Nc5ccc(C(F)(F)F)cn5)CC4)cc3)cc12 [Example 1.112] gave an IC50 of less than 0.005 µM.
Molecule N#Cc1cc2cc(-c3ccc(S(=O)(=O)N4CCC(Nc5ccc(C(F)(F)F)cn5)CC4)cc3)ccc2[nH]1 [Example 1.113] has an IC50 of 0.005 to 0.1 µM.
With N#Cc1c[nH]c2ccc(-c3ccc(S(=O)(=O)N4CCC(Nc5ccc(C(F)(F)F)cn5)CC4)cc3)cc12 [Example 1.114] the IC50 was less than 0.005 µM.
O=c1[nH]c2ccc(-c3ccc(S(=O)(=O)N4CCC(Nc5ccc(C(F)(F)F)cn5)CC4)cc3)cc2[nH]1 [Example 1.115] showed an IC50 of 0.005 to 0.1 µM.
N=[S@](=O)(c1ccc(-c2ccc3oc(N)nc3c2)cc1)N1CCC(Nc2ccc(C(F)(F)F)cn2)CC1 [Example 1.116] showed an IC50 of 0.005 to 0.1 µM.
Work on O=C1NCc2cc(-c3ccc(S(=O)(=O)N4CCC(Nc5ccc(C(F)(F)F)cn5)CC4)cc3)ccc21 [Example 1.117] yielded an IC50 of less than 0.005 µM.
Work on Nc1nc2cc(-c3ccc(S(=O)(=O)N4CCC(Nc5ccc(C(F)(F)F)cn5)CC4)cc3)ccc2o1 [Example 1.118] yielded an IC50 of less than 0.005 µM.
O=S(=O)(c1ccc(-c2ccc3[nH]ccc3c2)cc1)N1CCC(Nc2ccc(C(F)(F)F)cn2)CC1 [Example 1.119] gave an IC50 of 0.1 to 10 µM.
For O=S(=O)(c1ccc(-c2ccc3c(c2)CCC3)cc1)N1CCC(Nc2ccc(C(F)(F)F)cn2)CC1 [Example 1.120], the IC50 was 0.1 to 10 µM.
Work on NC(=O)C1CC2(C1)CN(c1ccc(S(=O)(=O)N3CCC(Nc4ccc(C(F)(F)F)cn4)CC3)cc1)C2 [Example 1.121] yielded an IC50 of 0.005 to 0.1 µM.
Molecule NC(=O)CN1CCN(c2ccc(S(=O)(=O)N3CCC(Nc4ccc(C(F)(F)F)cn4)CC3)cc2)CC1 [Example 1.122] has an IC50 of 0.005 to 0.1 µM.
Work on CC(C)(C(N)=O)C1CCN(c2ccc(S(=O)(=O)N3CCC(Nc4ccc(C(F)(F)F)cn4)CC3)cc2)CC1 [Example 1.123] yielded an IC50 of 0.005 to 0.1 µM.
With NC(=O)C1(C2CCN(c3ccc(S(=O)(=O)N4CCC(Nc5ccc(C(F)(F)F)cn5)CC4)cc3)CC2)CC1 [Example 1.124] the IC50 was 0.005 to 0.1 µM.
For NC(=O)NCCC1CCN(c2ccc(S(=O)(=O)N3CCC(Nc4ccc(C(F)(F)F)cn4)CC3)cc2)CC1 [Example 1.125], the IC50 was 0.005 to 0.1 µM.
In the case of CC(=O)NCCC1CCN(c2ccc(S(=O)(=O)N3CCC(Nc4ccc(C(F)(F)F)cn4)CC3)cc2)CC1 [Example 1.126], the IC50 is reported as 0.005 to 0.1 µM.
In the case of CS(=O)(=O)NCCC1CCN(c2ccc(S(=O)(=O)N3CCC(Nc4ccc(C(F)(F)F)cn4)CC3)cc2)CC1 [Example 1.127], the IC50 is reported as 0.005 to 0.1 µM.
Molecule O=S(=O)(c1ccc(N2CCC(c3nnn[nH]3)CC2)cc1)N1CCC(Nc2ccc(C(F)(F)F)cn2)CC1 [Example 1.128] has an IC50 of 0.1 to 10 µM.
O=S(=O)(c1ccc(N2CCOCC2)cc1)N1CCC(Nc2ccc(C(F)(F)F)cn2)CC1 [Example 1.129] gave an IC50 of 0.005 to 0.1 µM.
O=S(=O)(c1ccc(N2CCC(c3cnc[nH]3)CC2)cc1)N1CCC(Nc2ccc(C(F)(F)F)cn2)CC1 [Example 1.130] showed an IC50 of 0.1 to 10 µM.
For O=S(=O)(c1ccc(N2CCC(Cc3ncc[nH]3)CC2)cc1)N1CCC(Nc2ccc(C(F)(F)F)cn2)CC1 [Example 1.131], the IC50 was 0.1 to 10 µM.
NCCC1CCN(c2ccc(S(=O)(=O)N3CCC(Nc4ccc(C(F)(F)F)cn4)CC3)cc2)CC1 [Example 1.132] was tested, and the IC50 was 0.1 to 10 µM.
Molecule O=C(CC1CCN(c2ccc(S(=O)(=O)N3CCC(Nc4ccc(C(F)(F)F)cn4)CC3)cc2)CC1)NCCO [Example 1.133] has an IC50 of 0.1 to 10 µM.
In the case of CN(C)C(=O)CC1CCN(c2ccc(S(=O)(=O)N3CCC(Nc4ccc(C(F)(F)F)cn4)CC3)cc2)CC1 [Example 1.134], the IC50 is reported as 0.1 to 10 µM.
In the case of CNC(=O)CC1CCN(c2ccc(S(=O)(=O)N3CCC(Nc4ccc(C(F)(F)F)cn4)CC3)cc2)CC1 [Example 1.135], the IC50 is reported as 0.005 to 0.1 µM.
For CC1(CC(N)=O)CCN(c2ccc(S(=O)(=O)N3CCC(Nc4ccc(C(F)(F)F)cn4)CC3)cc2)CC1 [Example 1.136], the IC50 was 0.005 to 0.1 µM.
